Earlier results as cited in US6562869B1, “Nutritional supplement for increased energy and stamina” (Juvenon, Inc., priority 1999, dated 2003).
Where two headings read alike, the source gives them in different places.

Key:
[1] = test system: heart functions
[2] = test system: oxidative phosphorylation in skeletal muscles and brains; settings: patients with mitochondrial cytopathies due to enzyme defects
[3] = test system: male rats
[4] = test system: male mice; settings: life-long supplementation
[5] = test system: striatal nerves; settings: Q10 diet four weeks before and one week after MPTP
[6] = test system: human plasma LDL phospholipids; settings: healthy Finnish men and women aged 28-77, supplementation
[7] = daily up to 200 mg for 6 to 12 months and 100 mg daily for up to 6 years
[8] = test system: apoptosis; settings: through its action in the mitochondria
[9] = test system: human atrial tissue
[10] = test system: senescent myocardium; settings: rats
[11] = set-up: dose or concentration left out as unconfirmed; settings: woman deficient in Q10
[12] = test system: cardiac tissue
[13] = test system: oxidant production; settings: carnitine supplementation
[14] = test system: carnitine-acyl-carnitine exchange across the inner mitochondrial membrane
[15] = test system: aged rats
[16] = men over 60, 5 days
[17] = older adults 67-80 years, 8 weeks
[18] = test system: phosphocreatine (PCr)
[19] = test system: skeletal muscle; settings: older individuals aged 40-73, 20 g/day, one week
[20] = test system: human lymphocytes

COC1=C(OC)C(=O)C(C/C=C(\C)CC/C=C(\C)CC/C=C(\C)CC/C=C(\C)CC/C=C(\C)CC/C=C(\C)CC/C=C(\C)CC/C=C(\C)CC/C=C(\C)CCC=C(C)C)=C(C)C1=O [Example Q10, Coenzyme Q10]
heart functions ([1]; old rats): improve heart functions
heart functions ([1]; young rats): not significantly affect
oxidative phosphorylation in skeletal muscles and brains [2]: marked improvement
Q10 levels in kidney, heart and brain ([3]; Q10 supplementation): not affected
lifespan ([3]; life-long supplementation, rats): did not prolong or shorten
plasma and liver Q10 levels ([3]; supplemented rats): 2.6-8.4 times higher
lifespan [4]: did not prolong or shorten
dopamine, higher than control diet [5]: 37%
more dense neurons than control diet [5]: 62%
peroxyl radical trapping capacity [6]: doubled
adverse effects [7]: No important adverse effects
programmed cell death, or apoptosis [8]: appears to block
tolerance of the senescent myocardium to aerobic and ischemic stress [9]: improves the tolerance
tolerance of the senescent myocardium to aerobic and ischemic stress [10]: improves the tolerance
clinical response [11]: rapidly improved
effects of doxorubicin ([12]; cardiac tissue): blocks the effects of doxorubicin

C[N+](C)(C)CC(O)CC(=O)[O-] (centres unmarked) [carnitine]
cell antioxidants [13]: decreased cell antioxidants markedly
oxidant production increase [13]: 30%

C[N+](C)(C)C[C@H](O)CC(=O)[O-] [L-carnitine]
age-related dysfunction of carnitine-acyl-carnitine exchange [14]: slow or reverse

O=C(O)CCCC[C@@H]1CCSS1 [R-α-lipoic acid]
ambulatory activity of aged rats ([15]; aged rats): triple
age-related decline in mitochondrial membrane potential ([15]; supplementation): restore
age-related decrease in oxygen consumption ([15]; supplementation): reverse
age-related increase in oxidants ([15]; supplementation): significantly lower
glutathione and ascorbic acid levels ([15]; supplementation): to youthful levels

COc1cccc2c1C(=O)c1c(O)c3c(c(O)c1C2=O)C[C@@](O)(C(=O)CO)C[C@@H]3O[C@H]1C[C@H](N)[C@H](O)[C@H](C)O1 [doxorubicin]
mitochondrial oxidant production [12]: stimulates
mtDNA deletions in cardiac tissue ([12]; cardiac tissue): marked increase

CN(CC(=O)O)C(=N)N [creatine]
isokinetic performance and body mass [16]: only small increases
isometric strength [16]: no effect
1- and 12-repetitions maxima, effect of creatine supplementation [17]: no beneficial effect
time to exhaustion ([18]; both groups combined): increased
resting PCr increase ([18]; middle-aged group (50-year-olds), P<0.05): 30%
mean initial PCr resynthesis rate ([18]; middle-aged group, P<0.05): increased significantly
resting PCr increase ([18]; young group (30-year-olds), P<0.05): 15%
safety (about 1.5 g/day to about 25 g/day for at least a year): safe
adverse effects (athletes, doses up to 75 grams a day for years, aside from weight gain): without known adverse effects
skeletal muscle strength and endurance [19]: increased

COc1c(O)c(C)c(C/C=C(\C)CC/C=C(\C)CC/C=C(\C)CC/C=C(\C)CC/C=C(\C)CC/C=C(\C)CC/C=C(\C)CC/C=C(\C)CC/C=C(\C)CCC=C(C)C)c(O)c1OC [ubiquinol-10]
oxidative damage to DNA of human lymphocytes [20]: appears to protect

CC(=O)O[C@H](CC(=O)[O-])C[N+](C)(C)C [acetyl-L-carnitine]
age-related dysfunction of carnitine-acyl-carnitine exchange [14]: slow or reverse
